Values of other authors as cited in patent US20210283075A1, “METHODS OF TREATING ATTENTION DEFICIT HYPERACTIVITY DISORDER” (Ovid Therapeutics, Inc., priority 2018, published 2021).

How the values were obtained:
5-HT2C = molecular target: T1, 5-HT2C (Homo sapiens, UniProt P28335)
T1 sequence (P28335 33-458): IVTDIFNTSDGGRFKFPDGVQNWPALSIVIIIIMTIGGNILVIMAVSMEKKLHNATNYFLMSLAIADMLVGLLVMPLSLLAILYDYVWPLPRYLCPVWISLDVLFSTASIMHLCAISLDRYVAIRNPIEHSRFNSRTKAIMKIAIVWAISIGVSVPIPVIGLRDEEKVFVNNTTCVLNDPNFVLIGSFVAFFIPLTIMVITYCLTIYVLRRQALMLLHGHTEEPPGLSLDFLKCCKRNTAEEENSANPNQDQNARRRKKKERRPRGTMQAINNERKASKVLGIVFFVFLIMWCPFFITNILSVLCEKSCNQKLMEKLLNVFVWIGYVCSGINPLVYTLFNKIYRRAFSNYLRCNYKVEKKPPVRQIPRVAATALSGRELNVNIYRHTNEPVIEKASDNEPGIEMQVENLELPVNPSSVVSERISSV

[1] = compared to placebo
[2] = test system: brain-derived neurotrophic factor (BDNF); details: hypothalamus
sigma-1 receptor = sigma-1 receptor (Homo sapiens, UniProt Q99720)
Chain of sigma-1 receptor (Q99720 whole entry, species assumed): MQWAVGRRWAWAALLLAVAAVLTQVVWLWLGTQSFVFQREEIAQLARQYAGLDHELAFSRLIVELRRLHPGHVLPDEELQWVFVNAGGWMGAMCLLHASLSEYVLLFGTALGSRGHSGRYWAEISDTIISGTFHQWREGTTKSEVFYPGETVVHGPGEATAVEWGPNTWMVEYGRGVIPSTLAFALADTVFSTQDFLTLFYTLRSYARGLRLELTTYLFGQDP

dopamine D3 = dopamine D3 (Homo sapiens, UniProt P35462)
Chain of dopamine D3 (P35462 whole entry): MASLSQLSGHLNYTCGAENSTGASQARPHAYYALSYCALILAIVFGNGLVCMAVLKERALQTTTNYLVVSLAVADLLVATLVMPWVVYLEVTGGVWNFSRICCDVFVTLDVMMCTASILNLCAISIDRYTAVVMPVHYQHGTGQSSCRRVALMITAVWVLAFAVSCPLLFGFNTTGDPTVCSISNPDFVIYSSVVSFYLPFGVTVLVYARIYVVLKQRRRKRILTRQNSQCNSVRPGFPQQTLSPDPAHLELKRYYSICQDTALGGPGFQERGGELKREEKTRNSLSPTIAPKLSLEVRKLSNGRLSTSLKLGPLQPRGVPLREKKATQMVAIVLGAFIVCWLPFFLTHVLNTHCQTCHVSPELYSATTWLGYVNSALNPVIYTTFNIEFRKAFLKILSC

[3] = compared to lorazepam

CCCCSc1ccc(C(SCCN(C)C)c2ccccc2)cc1 (stereo not shown) [Captodiamine, 2-[(4-butylsulfanylphenyl)-phenyl-methyl]sulfanyl-N,N-dimethylethanamine]
activity at 5-HT2C (5-HT2C): 5-HT2C antagonist | severity of benzodiazepine withdrawal symptoms [1]: lower severity of benzodiazepine withdrawal symptoms | BDNF protein levels [2]: increase | activity at sigma-1 receptor (sigma-1 receptor): sigma-1 receptor agonist | activity at dopamine D3 (dopamine D3): dopamine D3 agonist | concentration and dexterity when driving [3]: improved the concentration and dexterity | tendency to drowsiness ([3]; when driving): without inducing a tendency to drowsiness
